From patent US20240182603A1, “SULFUR-S[…] TO STABILIZE OLIGOSACCHARIDE” (Brandeis University, priority 2021, published 2024)

System: HIV broadly neutralizing antibody 2G12
Experiment: STD-NMR (Saturation Transfer Difference NMR) binding analysis with 2G12 IgG
Settings: for mannose unit showing greatest saturation transfer (STD): pH 6.7 deuterated phosphate buffered saline, saturation time 3 s; for recognition by neutralizing HIV antibody 2G12: summary in Discussion, contacts similar to natural oligomannose
Protocol: With these S-Man3 and S-Man4 derivatives in hand, their recognition by HIV broadly neutralizing antibody 2G12 was studied. 2G12 binds primarily to the linear trimannose (D1) arm of Man9GlcNAc2. […] The temperature was 298 K for S-Man3 14 and 293 K for S-Man4 21 in order to move the HDO peak to avoid covering an anomeric resonance. The experiments were performed without suppression of the residual HDO signal. On-resonance frequencies of 0.86 ppm δ (protein aliphatic) and 7 ppm δ (protein aromatic) were applied for S-Man3 14 and […] S-Man4 21, respectively, in both cases with a saturation time of 3 s and an off-resonance frequency of 40 ppm δ.
In the case of the Man4 derivative, negligible STD is observed for the reducing-terminal mannose unit.

[1] = 25 μM 2G12 IgG, 200:1 sugar:antibody

SMILES | mannose unit showing greatest saturation transfer (STD) [1] | recognition by neutralizing HIV antibody 2G12 | STD observed for the reducing-terminal mannose unit (25 μM 2G12 IgG, 200:1 sugar:antibody, 293 K)
NCCO[C@H]1O[C@H](CO)[C@@H](O)[C@H](O)[C@@H]1S[C@H]1O[C@H](CO)[C@@H](O)[C@H](O)[C@@H]1O[C@H]1O[C@H](CO)[C@@H](O)[C@H](O)[C@@H]1O [compound 14, 2-aminoethyl-[α-D-mannopyranosyl-(1→2)-2-S-{α-D-mannopyranosyl-(1→2)}]-α-D-mannopyranoside] | greatest saturation transfer is seen for the non-reducing mannose unit | recognized | –
[N-]=[N+]=NC1CCC(O[C@@H]2OC(CO)[C@@H](O)[C@H](O[C@H]3OC(CO)[C@@H](O)[C@H](O)C3O[C@H]3OC(CO)[C@@H](O)[C@H](O)C3S[C@H]3OC(CO)[C@@H](O)[C@H](O)C3O)C2O)CC1 (stereo partly drawn) [compound 21, Trans-azidocyclohexyl-3-O-[{α-D-mannopyranosyl-(1→2)}-2-O-{α-D-mannopyranosyl-(1→2)}-2-S-{α-D-mannopyranosyl-(1→2)}]-β-D-mannopyranoside] | greatest saturation transfer is seen for the non-reducing mannose unit | recognized | negligible
